Results published in PubChem BioAssay (NCI).
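Five concentrations, 48 hours, 96-well plates. GI50 is the concentration that inhibits growth by half. The concentration for full growth arrest is given as TGI.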

Legend:
Assay in all cases: NCI-60 cell line screen, 48 h
[1] = test system: SK-MEL-5 melanoma
[2] = test system: CAKI-1 renal
[3] = test system: SF-295 CNS
[4] = test system: M14 melanoma
[5] = test system: 786-0 renal
[6] = test system: CCRF-CEM leukemia
[7] = test system: SW-620 colon
[8] = test system: COLO 205 colon
[9] = test system: NCI/ADR-RES ovarian
[10] = test system: T-47D breast

Row | Compound | TGI [1] [µM] | TGI [2] [µM] | TGI [3] [µM] | TGI [4] [µM] | TGI [5] [µM] | TGI [6] [µM] | TGI [7] [µM] | TGI [8] [µM] | GI50 [1] [µM] | GI50 [8] [µM] | GI50 [2] [µM] | GI50 [3] [µM] | GI50 [4] [µM] | GI50 [5] [µM] | GI50 [6] [µM] | GI50 [7] [µM] | GI50 [9] [µM] | TGI [9] [µM] | TGI [10] [µM]
1 | CC1=C(C(=O)CC(=O)C(=O)Nc2cc(C)ccc2C)Sc2ccccc2N1 | > 100 | > 100 | > 100 | > 100 | > 100 | > 100 | > 100 |  |  |  |  |  |  |  |  |  |  |  | 
2 | C=C1C(=O)OC2C/C(C)=C/CC/C(C)=C/CCC3(COC(C)=O)OC3CC12 (configuration not stated) | 28.3 | 9.48 | 29.3 | 18.5 | 17.4 | 8.49 | 5.09 | 15.6 |  |  |  |  |  |  |  |  |  |  | 
3 | CCC(=O)c1c(NOC2OCC(OC(C)=O)C(OC(C)=O)C2OC(C)=O)nc(OC)n(C)c1=O (configuration not stated) | > 100 | > 100 | > 100 | > 100 | > 100 | > 100 | > 100 | > 100 |  |  |  |  |  |  |  |  |  |  | 
4 | Cc1ccccc1NC(=O)c1cc(-c2ccc([N+](=O)[O-])cc2)nc(=S)[nH]1 | > 100 | > 100 | > 100 | > 100 | > 100 |  | > 100 | > 100 |  |  |  |  |  |  |  |  |  |  | 
5 | CCOC(=O)C1=C(Nc2ccc(Cl)cc2Cl)OCC1=O |  | > 100 | > 100 | > 100 | > 100 |  | > 100 | > 100 |  |  |  |  |  |  |  |  |  |  | 
6 | COc1cccc(/C(C#N)=C/c2nc3c(N4CCOCC4)nc(Cl)nc3n2C)c1 | 3.14 | 1.99 | 7.88 | 2.38 | 3.05 | 0.934 | 1.7 | 3.09 | 1.73 | 1.33 | 0.621 | 2.47 | 1.06 | 1.59 | 0.318 | 0.429 | 2.31 | 9.31 | 
7 | COC/C=C\COC | > 100 | > 100 | > 100 | > 100 | > 100 | > 100 | > 100 | > 100 |  |  |  |  |  |  |  |  |  |  | 
8 | CC(=O)N/N=C1\CC(C)(C)C2CCC1C2 (configuration not stated) | > 100 | > 100 | > 100 | > 100 | > 100 | > 100 | > 100 | > 100 |  |  |  |  |  |  |  |  |  |  | 
9 | COc1ccc2cc(/C=C/C(=O)c3ccc(Cl)cc3Cl)ccc2c1 | 45.2 | 89.1 | > 100 | > 100 | > 100 | 57.2 | 67 |  | 20.9 |  | 42.7 | 83.3 | 30.5 | 36.7 | 21 | 24.1 | 31 | 96.5 | 
10 | CCCNC(=O)C1C(=O)C(=O)N(CCC)C1=O (configuration not stated) | > 100 | > 100 |  | > 100 | > 100 | > 100 | > 100 | > 100 |  |  |  |  |  |  |  |  |  |  | 
11 | N/N=C1\C(=O)N(C2CCCCCC2)C(=O)C1C(=O)NC1CCCCCC1 (configuration not stated) | 43.6 |  | > 100 | > 100 | > 100 | 80.8 | > 100 | > 100 |  |  |  |  |  |  |  |  |  |  | 
12 | CC1=C[C@H]2c3c([nH]c4ccccc34)C(c3c[nH]c4ccccc34)[C@H]2CC1 (some centres not stated) | 28 | 26.3 |  | 19.2 | 11.2 | 10.9 | 24.1 | 13 |  |  |  |  |  |  |  |  |  |  | 
13 | CCC[CH2][Sn]([Cl])([Cl])[CH2]CCC | 1.55 | 1.44 | 2.92 | 2.78 | 2.04 | 0.781 | 1.24 | 3.2 | 0.509 | 1.15 | 0.295 | 1.53 | 1.14 | 0.714 | 0.221 | 0.333 |  |  | 
14 | COc1ccc(NC(=O)CC2SC(=Nc3ccccc3C)NC2=O)c([N+](=O)[O-])c1 (configuration not stated) |  |  | > 100 | > 100 | > 100 |  | > 100 | > 100 |  |  |  |  |  |  |  |  |  |  | 
15 | OCc1ccc(N2CCc3cccc(F)c3C2)cc1Cl | 35.4 | 21.8 | 18.1 | > 78.7 | 44.7 | 99.1 | > 79.7 | 0.175 | 14.9 | 0.0197 | 1.19 | 0.246 | 29.3 | 16.7 | 24.9 | < 0.0209 | 7.68 | 37.1 | 
16 | CCc1ccc(NC(=O)NC(=O)c2ccccc2[N+](=O)[O-])cc1Oc1ncc(Cl)cn1 | 0.0327 |  |  | > 100 | 1.01 | > 100 | > 100 | 0.106 |  |  |  |  |  |  |  |  |  |  | 
17 | C=C(CC(NC(=O)c1ccc(C(CC)Cc2cnc3nc(N)nc(N)c3n2)cc1)C(=O)O)C(=O)O (configuration not stated) | > 100 |  |  | > 100 | 5.17 | > 100 |  | > 100 |  |  |  |  |  | 0.0257 |  |  |  |  | 

Row | Compound | TGI [1] [µM] | TGI [2] [µM] | TGI [3] [µM] | TGI [4] [µM] | TGI [5] [µM] | TGI [6] [µM] | TGI [7] [µM] | TGI [8] [µM] | GI50 [1] [µM] | GI50 [8] [µM] | GI50 [2] [µM] | GI50 [3] [µM] | GI50 [4] [µM] | GI50 [5] [µM] | GI50 [6] [µM] | GI50 [7] [µM] | GI50 [9] [µM] | TGI [9] [µM] | TGI [10] [µM]
18 | CC1=Nc2c(ccc3c2C(=O)c2ccccc2C3=O)NC(c2cccc3c2CCC3)C1 (configuration not stated) | > 100 | > 96.8 | > 100 | > 100 | > 100 | > 100 | > 100 | > 100 |  |  |  |  |  |  |  |  |  |  | 
19 | O=c1c2cc(F)ccc2sc2c(N3CCNCC3)nc3ccc(F)cc3c12 | 3.11 | 2.92 | 3.22 | 3.66 | 2.98 | 5.24 | 3.12 | 4.72 | 1.73 | 2.15 | 1.57 | 1.78 | 1.94 | 1.49 | 2.06 | 1.61 | 1.75 | 3.44 | 
20 | COC12CCC(=O)C=C1c1ccccc1N2C(C)=O (configuration not stated) |  | > 100 | > 100 |  | > 100 | > 100 | > 100 | > 100 |  |  |  |  |  |  |  |  |  |  | 
21 | CCNC(=O)COc1ccc(Br)cc1Br | > 100 | > 100 | > 100 | > 100 | > 100 | > 100 | > 100 | > 100 |  |  |  |  |  |  |  |  |  |  | 
22 | N#Cc1ccccc1C(Cl)(Cl)c1cnccn1 | 87.3 | > 100 | > 100 |  | 32.3 | 50.3 | > 100 | > 100 |  |  |  |  |  |  |  |  |  |  | 
23 | CC(Oc1ccc2c(-c3ccccc3)cc(=O)oc2c1)C(=O)O (configuration not stated) | > 100 | > 100 | > 100 | > 100 | > 100 | > 100 | > 100 | > 100 |  |  |  |  |  |  |  |  |  |  | 
24 | O=C(Cc1nc2ccccc2c(=O)n1-c1ccccc1Cl)c1ccncc1 | > 100 | > 100 | > 100 | > 100 | > 100 | > 100 | > 100 | > 100 |  |  |  |  |  |  |  |  |  |  | 
25 | O=C(CCC(=O)Nc1ccc(Cl)c(Cl)c1)CC(=O)c1ccc(Br)cc1 | > 100 | > 100 |  | > 100 | > 100 | > 100 | > 100 | > 100 |  |  |  |  |  |  |  |  |  |  | 
26 | C#Cc1cccc(N2C(=O)c3c(c(-c4ccccc4)c(-c4ccc(Cc5ccc(-c6c(-c7ccccc7)c7c(c(-c8ccccc8)c6-c6ccccc6)C(=O)N(c6cccc(C#C)c6)C7=O)cc5)cc4)c(-c4ccccc4)c3-c3ccccc3)C2=O)c1 | 62 |  | > 100 | 41.5 | > 100 | > 100 | > 100 | 66.5 |  |  |  |  |  |  |  |  |  |  | 
27 | COc1ccc(NC(=O)/C(=C/c2ccccc2)C(C)=O)cc1 | 28.2 | 29.2 | 28.6 | 27.1 | 28.6 | 27.9 | 35.1 | 35.7 |  |  |  |  |  |  |  |  |  |  | 
28 | CC1/C=C/[C@@]2(C)CCC(C(C)(C)O)C2C(O)C[C@](C)(O)/C=C/C1 (some centres not stated) | > 100 | > 100 | > 100 | > 100 | > 100 | > 100 | > 100 | > 100 |  |  |  |  |  |  |  |  |  |  | 
29 | Cc1ccc(NC(=O)CCc2nc(N)nc(N)c2-c2ccccc2)cc1C | > 100 | > 100 | > 100 | > 100 | > 100 | > 100 | > 100 | > 100 |  |  |  |  |  |  |  |  |  |  | 
30 | CCC1CC2C(=O)N(c3ccccc3)C(=O)C2c2[nH]c3ccccc3c21 (configuration not stated) | > 100 |  | 29.8 | > 100 | 47.6 | > 100 | > 100 | 78.5 |  |  |  |  |  |  |  |  |  |  | 
31 | COc1ccc2c(=O)cc(-c3ccccc3)[nH]c2c1 | 7.4 | > 100 | 1.84 | > 100 | > 100 | > 100 | > 100 | 1.55 | 0.323 | 0.364 | 0.323 | 0.33 | 5.93 | 4.56 | 1.48 | 0.444 | 0.547 | 6.15 | 
32 | O=C1CC2C(=O)c3ccccc3CC2c2ccccc21 (configuration not stated) |  |  | > 100 | > 100 | > 100 |  | > 100 |  |  |  |  |  |  |  |  |  |  |  | 87.7
33 | Cc1nn[n-]n1.N.N.N.N.N.[Cl-].[Co+3] | > 100 | > 100 | > 100 | > 100 | > 100 | > 100 | > 100 | > 100 | > 100 | > 100 | > 100 | > 100 | > 100 | > 100 | > 100 | > 100 |  |  | 
34 | CCOC(=O)C(=O)Nc1ccccc1C | > 100 | > 100 |  | > 100 | > 100 | > 100 | > 100 | > 100 |  |  |  |  |  |  |  |  |  |  | 
